The values that follow come from patent US8785452B2, “Anti-infective compounds” (priority 2008, dated 2014).

Structures are written as SMILES. ≈ marks a conversion by molar mass, not a printed value. Where two headings read alike, the source gives them in different places.

A word on the inhibition: it is the drop in the measured response relative to a control, in per cent.

One data set concerns Raw264.7 cells. Put plainly: Cell number (CellNb) from image analysis of the phenotypic cell-based assay.
Data set [1] has as its system M. tuberculosis H37Rv-GFP. As to the kind of experiment: microbe, parasite or virus in culture. Type of data set: cell-based, Mycobacterium tuberculosis. As to conditions: for inhibition at 20 µM / inhibition at 0.2 µM / inhibition at 2 µM: Macrophage; for inhibition at 0.2 µM: read-out: QIM Confirm % Inhibition 0.2 uM; for inhibition at 2 µM: read-out: QIM Confirm % Inhibition 2 uM.

The test system of data set [2] is M. tuberculosis H37Rv-GFP. As to the kind of experiment: microbe, parasite or virus in culture. Format: cell-based. As to conditions: Mycobacterium tuberculosis; for inhibition at 0.2 µM: read-out: QUM Confirm % Inhibition 0.2 uM; for inhibition at 2 µM: read-out: QUM Confirm % Inhibition 2 uM; for inhibition at 20 µM: read-out: QUM Confirm % Inhibition 20 uM.
Setting [3] is: Mycobacterium tuberculosis, H37RV, confirmation, 20 uM, read-out: QIM Confirm % Inhibition 20 uM.
The mark [4] stands for this setting: Mycobacterium tuberculosis, H37RV, primary screen, 20 μM, read-out: Primary QIM % Inhibition.
The mark [5] stands for this setting: Mycobacterium tuberculosis, H37RV, confirmation, 0.2 uM, intracellular.
Setting [6] is: Mycobacterium tuberculosis, H37RV, confirmation, 2 uM, intracellular.
Where [7] appears, read: Mycobacterium tuberculosis, H37RV, read-out: Primary QIM % Inhibition.
The mark [8] stands for this setting: Mycobacterium tuberculosis, H37RV.
[9] abbreviates: Mycobacterium tuberculosis, H37RV, read-out: QIM Confirm % Inhibition 20 uM.
The mark [10] stands for this setting: Mycobacterium tuberculosis, H37RV, confirmation, 20 uM, intracellular, read-out: QIM Confirm % Inhibition 20 uM.
The mark [11] stands for this setting: Mycobacterium tuberculosis, H37RV, primary screen, 20 μM, intracellular, read-out: Primary QIM % Inhibition.

`CN(C)c1ccc(/N=N/c2ccccc2C(=O)O)cc1` [IPK 000 052 75]: the “Primary QIM CellNb” value in the data set on Raw264.7 cells (primary screen, 20 μM) came out at 48.8. Moreover, the inhibition at 20 µM was 10.1% in data set [1] (setting [3]) and -77.4% in data set [1] (setting [4]).
Consider `O=C(N/N=C/C=C/c1ccccc1)c1ccncc1` [IPK 000 013 68], for which the “QIM Confirm CellNb 0.2 uM” value in the data set on Raw264.7 cells (confirmation, 0.2 uM) worked out at 400.1. In addition, the “QIM Confirm CellNb 2 uM” value in the data set with Raw264.7 cells (confirmation, 2 uM) is recorded as 528.8. For the same compound, in the data set on Raw264.7 cells (confirmation, 20 uM), the “QIM Confirm CellNb 20 uM” value amounted to 438.8. The “Primary QIM CellNb” value in the data set on Raw264.7 cells (primary screen, 20 μM) came to 276.3. For the same compound, the inhibition at 0.2 µM in data set [1] (setting [5]) came out at 50.9%; in data set [2], 50.4%. Further, the inhibition at 2 µM in data set [1] (setting [6]) stood at 102%; in data set [2] it was 77.1%. Moreover, the inhibition at 20 µM in data set [1] (setting [3]) came out at 67.2%; in data set [1] (setting [4]) it was 65%; in data set [2], 77.6%.
`COc1cccc(OCCNC(=O)c2cc([N+](=O)[O-])cc([N+](=O)[O-])c2)c1` [IPK 000 027 77]: in the data set with Raw264.7 cells, the “Primary QIM CellNb” value was 378.0, the “QIM Confirm CellNb 0.2 uM” value was 218.1, the “QIM Confirm CellNb 2 uM” value is recorded as 315.3 and the “QIM Confirm CellNb 20 uM” value came out at 322.3. The inhibition at 20 µM in data set [1] (setting [7]) is 89.1%. Besides, in data set [1] (setting [8]), the inhibition at 0.2 µM is -12.6% and the inhibition at 2 µM worked out at 47.7%. Besides, the inhibition at 20 µM in data set [1] (setting [9]) was 86.3%. Further, in data set [2], the inhibition at 0.2 µM was 40.2%, the inhibition at 2 µM came to 96.8% and the inhibition at 20 µM came out at 100%.
Consider `O=C(NN1C(=O)c2ccc(Br)cc2C1=O)c1ccncc1` [IPK 000 008 02], for which the “QIM Confirm CellNb 0.2 uM” value in the data set on Raw264.7 cells (confirmation, 0.2 uM) was found to be 306.6. The “QIM Confirm CellNb 2 uM” value in the data set with Raw264.7 cells (confirmation, 2 uM) is 218.8. For the same compound, in the data set with Raw264.7 cells (confirmation, 20 uM), the “QIM Confirm CellNb 20 uM” value worked out at 484.5. The “Primary QIM CellNb” value with Raw264.7 cells (primary screen, 20 μM) came to 305.8. Also, the inhibition at 0.2 µM in data set [1] (setting [5]) is 0.7%; in data set [2] it was 36.4%. The inhibition at 2 µM was 9.3% in data set [1] (setting [6]) and 31.9% in data set [2]. Further, the inhibition at 20 µM in data set [1] (setting [3]) turned out to be 98%; in data set [1] (setting [4]) it was 83.2%; in data set [2], 98.2%.
For `O=C(Nc1ccc([N+](=O)[O-])cc1)C12CC3CC(CC(C3)C1)C2` [IPK 000 022 33], in the data set on Raw264.7 cells (confirmation, 0.2 uM), the “QIM Confirm CellNb 0.2 uM” value was determined as 315.6. Besides, the “QIM Confirm CellNb 2 uM” value with Raw264.7 cells (confirmation, 2 uM) is on record as 472.3. Moreover, the “QIM Confirm CellNb 20 uM” value in the data set on Raw264.7 cells (confirmation, 20 uM) turned out to be 517.1. Besides, the “Primary QIM CellNb” value in the data set with Raw264.7 cells (primary screen, 20 μM) stood at 372.0. The inhibition at 0.2 µM in data set [1] (setting [5]) came out at 30.3%; in data set [2] it was 35.7%. For the same compound, the inhibition at 2 µM came to 33.5% in data set [1] (setting [6]) and 45.4% in data set [2]. For the same compound, the results for the inhibition at 20 µM in data set [1] (setting [3]), in data set [1] (setting [4]) and in data set [2] were 90%, 66% and 74.2%, respectively.
On to `O=C(O)c1cn(C2CC2)c2cc(N3CCNCC3)c(F)cc2c1=O` [IPK 000 117 14], for which the “Primary QIM CellNb” value in the data set on Raw264.7 cells (primary screen, 20 μM) stood at 546.0. In addition, the inhibition at 20 µM stood at 69.1% in data set [1] (setting [7]) and 66.5% in data set [1] (setting [9]).
With `N#Cc1ccccc1NC(=O)CSc1nc2ccccc2s1` [IPK 000 018 97], the “QIM Confirm CellNb 0.2 uM” value with Raw264.7 cells (confirmation, 0.2 uM) amounted to 288.5. The “QIM Confirm CellNb 2 uM” value in the data set with Raw264.7 cells (confirmation, 2 uM) is on record as 299.8. The “QIM Confirm CellNb 20 uM” value in the data set on Raw264.7 cells (confirmation, 20 uM) worked out at 553.9. Also, the “Primary QIM CellNb” value with Raw264.7 cells (primary screen, 20 μM) worked out at 314.0. Moreover, the inhibition at 0.2 µM in data set [1] (setting [5]) came out at 7.3%; in data set [2], 40.5%. Further, the values for the inhibition at 2 µM in data set [1] (setting [6]) and in data set [2] were 20% and 33.9%, respectively. For the same compound, the values for the inhibition at 20 µM in data set [1] (setting [3]), in data set [1] (setting [4]) and in data set [2] were 83.8%, 76.7% and 36.1%, respectively.
As to `CC(C)(C)C(=O)Nc1ccccc1C(=O)N1CCOCC1` [IPK 000 021 87], the “QIM Confirm CellNb 0.2 uM” value with Raw264.7 cells (confirmation, 0.2 uM) stood at 305.3. In the data set with Raw264.7 cells (confirmation, 2 uM), the “QIM Confirm CellNb 2 uM” value stood at 403.4. In the data set with Raw264.7 cells (confirmation, 20 uM), the “QIM Confirm CellNb 20 uM” value came out at 609.0. The “Primary QIM CellNb” value in the data set on Raw264.7 cells (primary screen, 20 μM) was determined as 405.0. The inhibition at 0.2 µM in data set [1] (setting [5]) stood at 15.4%; in data set [2], 49.1%. The inhibition at 2 µM in data set [1] (setting [6]) was found to be 29.8%; in data set [2], 42.9%. Further, the inhibition at 20 µM in data set [1] (setting [3]) is 96.5%; in data set [1] (setting [4]), 90.2%; in data set [2], 41.9%.
`CCCSc1nnc(-c2ccc(Cl)cc2Cl)o1` [IPK 000 024 43]: in the data set with Raw264.7 cells (confirmation, 0.2 uM), the “QIM Confirm CellNb 0.2 uM” value is on record as 352.1. Further, in the data set on Raw264.7 cells (confirmation, 2 uM), the “QIM Confirm CellNb 2 uM” value is 349.0. Also, the “QIM Confirm CellNb 20 uM” value in the data set on Raw264.7 cells (confirmation, 20 uM) turned out to be 205.0. Besides, in the data set with Raw264.7 cells (primary screen, 20 μM), the “Primary QIM CellNb” value is 203.8. The values for the inhibition at 0.2 µM in data set [1] (setting [5]) and in data set [2] were 50.4% and 34.7%, respectively. Besides, the inhibition at 2 µM in data set [1] (setting [6]) came to 58.3%; in data set [2], 40.1%. The results for the inhibition at 20 µM in data set [1] (setting [3]), in data set [1] (setting [4]) and in data set [2] were 59.1%, 5.8% and 67.7%, respectively.
For `O=C(N/N=C/c1ccccc1F)c1ccncc1` [IPK 000 013 71], the “QIM Confirm CellNb 0.2 uM” value in the data set with Raw264.7 cells (confirmation, 0.2 uM) was found to be 476.5. Moreover, in the data set with Raw264.7 cells (confirmation, 2 uM), the “QIM Confirm CellNb 2 uM” value is 544.3. For the same compound, the “QIM Confirm CellNb 20 uM” value with Raw264.7 cells (confirmation, 20 uM) was 377.4. The “Primary QIM CellNb” value in the data set on Raw264.7 cells (primary screen, 20 μM) stood at 358.8. In addition, the inhibition at 0.2 µM in data set [1] (setting [5]) was 86.3%; in data set [2], 51.6%. For the same compound, the inhibition at 2 µM worked out at 105% in data set [1] (setting [6]) and 92.2% in data set [2]. For the same compound, the inhibition at 20 µM is 97.5% in data set [1] (setting [3]), 103% in data set [1] (setting [4]) and 68.4% in data set [2].
In the case of `[C-]#[N+]c1ccc(Cl)cc1C(C)S(=O)(=O)c1ccc(C)cc1` (centres unmarked) [IPK 000 126 33], the “QIM Confirm CellNb 2 uM” value in the data set on Raw264.7 cells (confirmation, 2 uM) is 126.8. The “Primary QIM CellNb” value with Raw264.7 cells (primary screen, 20 μM) is 123.3. Besides, the inhibition at 20 µM came out at 73.4% in data set [1] (setting [10]) and 80.7% in data set [1] (setting [11]).
Turning to `CNCCCN1c2ccccc2CCc2ccccc21` [IPK 000 224 59], the “Primary QIM CellNb” value in the data set with Raw264.7 cells (primary screen, 20 μM) turned out to be 60.3. Besides, the inhibition at 20 µM stood at 86.2% in data set [1] (setting [10]) and 72.9% in data set [1] (setting [11]).
On to `NNC(=O)c1ccncc1` [INH, isoniazid, reference compound], for which the “minimal inhibitory concentration (MIC)” value in data set [1] was determined as 0.16 ± 0.05 µg/mL (≈ 1.17 µM). Besides, the MIC came out at 0.1 µg/mL (≈ 0.729 µM) in data set [1] (Mycobacterium tuberculosis, H37RV, 120 h, read-out: minimal inhibitory concentration (MIC)) and 0.1 µg/mL (≈ 0.729 µM) in data set [2] (read-out: minimal inhibitory concentration (MIC)).
For the compound `O=C(Nc1ccc(Br)cc1)c1cc([N+](=O)[O-])cc([N+](=O)[O-])c1` [IPK 000 046 92], the “Primary QIM CellNb” value in the data set with Raw264.7 cells (primary screen, 20 μM) was found to be 303.5. Also, the figures for the inhibition at 20 µM in data set [1] (setting [3]) and in data set [1] (setting [4]) were 93.4% and 90.2%, respectively.
The like results for `C=CCN1C(=O)/C(=N/NC(=O)c2ccc(F)cc2)c2ccccc21` [IPK 000 104 67] were, in that order, 183.0, 73.7% and 33.8%.
The like results for `CCCCOC(=O)C1(O)c2ccccc2-c2ccccc21` [IPK 000 105 56] were, in that order, 225.0, 86.9% and 65.7%.
For `O=C([O-])Cc1ccccc1Nc1c(Cl)cccc1Cl.[Na+]` [IPK 000 117 05], in that order: 656.5, 80.5% and 79.8%.
Turning to `CCOC(=O)C1(O)c2ccccc2-c2ccccc21` [IPK 000 105 55], in the data set with Raw264.7 cells (primary screen, 20 μM), the “Primary QIM CellNb” value worked out at 181.3. The inhibition at 20 µM in data set [1] (setting [3]) came out at 91.5%; in data set [1] (setting [4]), 89.3%.
